According to ChEMBL document CHEMBL1821592, “Dual effects of caffeoyl-amino acidyl-hydroxamic acid as an antioxidant and depigmenting agent” (Bioorg Med Chem Lett, 2011):
Calls of active or inactive are those of the source. No cut-off for these calls is given here.

Columns and labels:
[1] = target: T1, Tyrosinase (Agaricus bisporus) (UniProt O42713); assay: Inhibition of mushroom tyrosinase using L-DOPA as substrate at 50 uM after 10 mins by UV absorbance method
T1 sequence (whole entry): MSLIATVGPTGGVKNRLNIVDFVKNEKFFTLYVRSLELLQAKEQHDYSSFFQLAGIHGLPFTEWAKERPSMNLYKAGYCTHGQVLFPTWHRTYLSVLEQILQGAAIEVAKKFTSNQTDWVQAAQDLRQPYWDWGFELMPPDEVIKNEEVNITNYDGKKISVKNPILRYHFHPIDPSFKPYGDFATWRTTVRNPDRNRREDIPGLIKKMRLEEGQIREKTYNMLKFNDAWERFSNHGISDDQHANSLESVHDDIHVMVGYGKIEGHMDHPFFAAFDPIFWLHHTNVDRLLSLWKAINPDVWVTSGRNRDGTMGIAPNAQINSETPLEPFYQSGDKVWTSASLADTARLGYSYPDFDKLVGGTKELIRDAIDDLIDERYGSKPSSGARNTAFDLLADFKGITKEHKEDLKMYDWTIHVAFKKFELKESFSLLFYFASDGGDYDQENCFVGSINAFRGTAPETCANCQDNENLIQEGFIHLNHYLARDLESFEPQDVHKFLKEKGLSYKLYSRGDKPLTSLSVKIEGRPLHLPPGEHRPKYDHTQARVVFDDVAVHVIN

[2] = Antioxidant activity against linoleic acid lipid peroxidation at 90 uM after 48 hrs by ferric thiocyanate method; format: functional
[3] = Antioxidant activity against linoleic acid lipid peroxidation at 90 uM by ferric thiocyanate method; format: functional
[4] = Cytotoxicity against mouse Mel-Ab cells up to 200 uM after 24 hrs by crystal violet staining based ELISA; format: cell-based
[5] = test system: Radical scavenging activity; assay: Antioxidant activity assessed as DPPH free radical scavenging activity at 1.85 mM after 10 mins relative to control; format: functional
Mel-Ab = assay: Inhibition of melanogenesis in mouse Mel-Ab cells assessed as reduction of melanin production at 100 uM after 4 days by ELISA reader; format: functional, cell-based

inhibition [1] | Structure (SMILES) | Activity [5] [%] | further results
Active | O=C(NO)[C@@H]1CCCN1C(=O)/C=C/c1ccc(O)c(O)c1 | 77.2 | Activity [2]: Active; Activity [3]: Active; Activity [4]: Non-toxic; inhibition (Mel-Ab): Active
Active | C[C@H](NC(=O)/C=C/c1ccc(O)c(O)c1)C(=O)NO | 40.7 | 
inactive | O=C(O)/C=C/c1ccc(O)c(O)c1 | 52.4 | 
Active | O=C(/C=C/c1ccc(O)c(O)c1)NCCC(=O)NO | 42.2 | 
Active | CC(C)C[C@H](NC(=O)/C=C/c1ccc(O)c(O)c1)C(=O)NO | 51.1 | 
Active | O=C(/C=C/c1ccc(O)c(O)c1)NCC(=O)NO | 39.4 | 

More lines, now with the values behind:

Structure (SMILES) | inhibition [1] | Activity [5] [%] | further results
O=C(/C=C/c1ccc(O)c(O)c1)N[C@H](Cc1ccccc1)C(=O)NO |  | 47.6 | 
O=C(/C=C/c1ccc(O)c(O)c1)N[C@H](C(=O)NO)c1ccccc1 |  | 56.2 | 
O=C(/C=C/c1ccc(O)c(O)c1)NC(Cc1ccccc1)C(=O)NO (stereo not drawn) | Active |  | 
O=C(O)[C@@H]1CCCN1C(=O)/C=C/c1ccc(O)c(O)c1 |  | 20 | Activity [2]: Active; Activity [3]: Active
O=C(/C=C/c1ccc(O)c(O)c1)N[C@@H](Cc1ccccc1)C(=O)NO |  | 40.9 | 
